For 28 compounds, Ki and EC50 results are on record in US10501421B1, “Substituted benzimidazoles as modulators of Ras signaling” (VANDERBILT UNIVERSITY, priority 2017, dated 2019).

One experiment addresses T1, Son of Sevenless (SOS) (Homo sapiens, UniProt Q07889).
T1 sequence (Q07889 564-1049 limits assumed): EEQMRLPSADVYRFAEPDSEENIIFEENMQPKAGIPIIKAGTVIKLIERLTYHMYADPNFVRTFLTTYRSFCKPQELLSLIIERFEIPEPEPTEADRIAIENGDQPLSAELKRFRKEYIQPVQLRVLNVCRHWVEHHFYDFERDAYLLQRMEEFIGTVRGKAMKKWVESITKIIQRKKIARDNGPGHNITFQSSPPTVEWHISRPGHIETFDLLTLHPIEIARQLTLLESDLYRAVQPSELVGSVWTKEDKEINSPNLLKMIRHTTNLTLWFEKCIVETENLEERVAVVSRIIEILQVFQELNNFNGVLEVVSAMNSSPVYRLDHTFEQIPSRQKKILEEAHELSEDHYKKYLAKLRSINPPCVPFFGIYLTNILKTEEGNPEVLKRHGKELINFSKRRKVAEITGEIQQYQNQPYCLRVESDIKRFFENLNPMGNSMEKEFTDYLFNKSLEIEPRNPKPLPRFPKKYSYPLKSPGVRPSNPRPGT
Briefly: Binding to SOS, fluorescence polarization anisotropy (FPA) probe displacement. The following applies: displacement of FITC-conjugated probe (Example 285), affinity calculated from IC50. Put shortly:
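A FITC-conjugated probe compound was incubated with SOS in buffer, and its displacement was tracked as a change in fluorescence anisotropy across a test-compound dose range. IC50 came from a four-parameter variable-slope fit, and binding affinity was calculated from it.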

For experiment [1], the target named is Ras GEF SOS (Son of Sevenless) (Homo sapiens, UniProt Q07889). Briefly: SOS-mediated nucleotide exchange on Ras (BODIPY-GDP fluorescence). It counts as biochemical. The following applies: SOS-mediated exchange of BODIPY-GDP for GTP on Ras. Put shortly:
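Ras loaded with BODIPY-GDP was mixed in buffer with test compound, then GTP and SOS. Fluorescence change from labeled GDP/GTP exchange was followed over time, and rates came from single-exponential fits. EC50 came from a four-parameter fit of mean rate against compound concentration.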

The structures appear in SMILES notation.

Chain of Ras GEF SOS (Son of Sevenless) (P01112 1-166 partner limits assumed, one chain of several): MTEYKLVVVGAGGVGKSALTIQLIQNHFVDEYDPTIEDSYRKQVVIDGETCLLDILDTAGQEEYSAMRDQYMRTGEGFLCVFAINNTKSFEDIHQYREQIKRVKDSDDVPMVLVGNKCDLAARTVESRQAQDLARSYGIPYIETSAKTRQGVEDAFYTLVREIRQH

As for `Cc1cc(Cn2c(N3CCNCC3)nc3c(OCCN4CCN(C)CC4)cccc32)ccc1F` [Example 209, 1-(4-fluoro-3-methylbenzyl)-4-(2-(4-methylpiperazin-1-yl)ethoxy)-2-(piperazin-1-yl)-1H-benzo[d]imidazole], the Ki (in general, the dissociation constant of the complex between target and ligand, obtained from inhibition or displacement) at Son of Sevenless (SOS) is > 5 µM. Also, in experiment [1], the 50% effective concentration (EC50) (commonly the concentration needed to bring the measured effect to its halfway point) is < 1 µM.

Consider `Cc1cc(Cn2c(N3CCNCC3)nc3c(OCCN(C)C)cccc32)ccc1F` [Example 210, 2-((1-(4-fluoro-3-methylbenzyl)-2-(piperazin-1-yl)-1H-benzo[d]imidazol-4-yl)oxy)-N,N-dimethylethan-1-amine], for which the inhibition constant Ki on Son of Sevenless (SOS) is > 5 µM. Further, the EC50 in experiment [1] is < 1 µM.

`Cc1cc2c(cc1C)N(Cc1ccc(F)c(Cl)c1)C1=NCCCN12` [Example 213, 10-(3-chloro-4-fluorobenzyl)-7,8-dimethyl-2,3,4,10-tetrahydrobenzo[4,5]imidazo[1,2-a]pyrimidine]: the Ki on Son of Sevenless (SOS) is > 5 µM. The compound also came in with an EC50 in experiment [1] of 1 to 5 µM.

`Fc1ccc(CN2C3=NCCCN3c3cc(Cl)ccc32)cc1Cl` [Example 214, 7-chloro-10-(3-chloro-4-fluorobenzyl)-2,3,4,10-tetrahydrobenzo[4,5]imidazo[1,2-a]pyrimidine]: the inhibition constant Ki on Son of Sevenless (SOS) is > 5 µM. This compound registered an EC50 in experiment [1] of 30 to 100 µM.

As for `Cc1cc2c(nc(N3CC(CN)C3)n2Cc2ccc(F)c(C)c2)c(-c2ccccc2F)n1` [Example 216, (1-(1-(4-fluoro-3-methylbenzyl)-4-(2-fluorophenyl)-6-methyl-1H-imidazo[4,5-c]pyridin-2-yl)azetidin-3-yl)methanamine], the inhibition constant (Ki) at Son of Sevenless (SOS) was 0.5 to 1 µM. Moreover, in experiment [1], the EC50 is < 1 µM.

On to `Cc1cc2c(nc(N3CCNCC3)n2Cc2ccc(F)c(C)c2)c(-c2ccccc2F)n1` [Example 217, 1-(4-fluoro-3-methylbenzyl)-4-(2-fluorophenyl)-6-methyl-2-(piperazin-1-yl)-1H-imidazo[4,5-c]pyridine], for which, at Son of Sevenless (SOS), the Ki was > 5 µM. Also, the 50% effective concentration (EC50) in experiment [1] was 1 to 5 µM.

As for `Cc1cc2c(nc(N3CCNCC3)n2Cc2ccc(F)c(C)c2)c(Cl)n1` [Example 218, 4-chloro-1-(4-fluoro-3-methylbenzyl)-6-methyl-2-(piperazin-1-yl)-1H-imidazo[4,5-c]pyridine], the Ki on Son of Sevenless (SOS) is > 5 µM. In addition, the EC50 in experiment [1] lay in the range of 5 to 30 µM.

With `Cc1cc2c(nc(N3CCNCC3)n2Cc2ccc(F)c(C)c2)c(-c2ccccc2C(C)C)n1` [Example 219, 1-(4-fluoro-3-methylbenzyl)-4-(2-isopropylphenyl)-6-methyl-2-(piperazin-1-yl)-1H-imidazo[4,5-c]pyridine], the inhibitory constant (Ki) on Son of Sevenless (SOS) is > 5 µM. The concentration giving a half-maximal response (EC50) in experiment [1] was in the range of 5 to 30 µM.

On to `Cc1cc2c(nc(NCCN)n2Cc2ccc(F)c(C)c2)c(-c2ccccc2C)n1` [Example 224, N^1-(1-(4-fluoro-3-methylbenzyl)-6-methyl-4-(o-tolyl)-1H-imidazo[4,5-c]pyridin-2-yl)ethane-1,2-diamine], for which the inhibition constant Ki at Son of Sevenless (SOS) is > 5 µM. In experiment [1], this compound yielded an EC50 of 5 to 30 µM.

Regarding `Cc1cc2c(nc(N3CCNCC3)n2Cc2ccc(F)c(C)c2)c(-c2ccccc2C)n1` [Example 225, 1-(4-fluoro-3-methylbenzyl)-6-methyl-2-(piperazin-1-yl)-4-(o-tolyl)-1H-imidazo[4,5-c]pyridine], at Son of Sevenless (SOS), the Ki is > 5 µM. In experiment [1], this compound showed an EC50 of 5 to 30 µM.

As to `Cc1cc2c(nc(N3CCNCC3)n2Cc2ccc(F)c(C)c2)c(-c2ccncc2)n1` [Example 226, 1-(4-fluoro-3-methylbenzyl)-6-methyl-2-(piperazin-1-yl)-4-(pyridin-4-yl)-1H-imidazo[4,5-c]pyridine], on Son of Sevenless (SOS), the Ki was > 5 µM. Besides, the EC50 in experiment [1] fell in the range of 5 to 30 µM.

Turning to `Cc1cc2c(nc(N3CCNCC3)n2Cc2ccc(F)c(C)c2)c(-c2cccnc2C)n1` [Example 227, 1-(4-fluoro-3-methylbenzyl)-6-methyl-4-(2-methylpyridin-3-yl)-2-(piperazin-1-yl)-1H-imidazo[4,5-c]pyridine], at Son of Sevenless (SOS), the Ki was > 5 µM. The compound also came in with a half-maximal effective concentration (EC50) in experiment [1] of 1 to 5 µM.

As for `COc1ccccc1-c1nc(C)cc2c1nc(N1CCNCC1)n2Cc1ccc(F)c(C)c1` [Example 228, 1-(4-fluoro-3-methylbenzyl)-4-(2-methoxyphenyl)-6-methyl-2-(piperazin-1-yl)-1H-imidazo[4,5-c]pyridine], the inhibitory constant (Ki) on Son of Sevenless (SOS) is > 5 µM. This compound also registered a concentration for a half-maximal effect (EC50) in experiment [1] of 5 to 30 µM.

Turning to `Cc1cc2c(nc(N3CCNCC3)n2Cc2ccc(F)c(C)c2)c(-c2ccc(CN)cc2)n1` [Example 229, (4-(1-(4-fluoro-3-methylbenzyl)-6-methyl-2-(piperazin-1-yl)-1H-imidazo[4,5-c]pyridin-4-yl)phenyl)methanamine], at Son of Sevenless (SOS), the Ki is > 5 µM. In experiment [1], this compound showed a 50% effective concentration (EC50) of 1 to 5 µM.

Take `COc1ccc(-c2nc(C)cc3c2nc(N2CCNCC2)n3Cc2ccc(F)c(C)c2)cc1OC` [Example 230, 4-(3,4-dimethoxyphenyl)-1-(4-fluoro-3-methylbenzyl)-6-methyl-2-(piperazin-1-yl)-1H-imidazo[4,5-c]pyridine]: on Son of Sevenless (SOS), the Ki is > 5 µM. This compound also yielded a 50% effective concentration (EC50) in experiment [1] of 5 to 30 µM.

Turning to `Cc1cc2c(nc(N3CCNCC3)n2Cc2ccc(F)c(C)c2)c(CNCC(C)C)n1` [Example 231, N-((1-(4-fluoro-3-methylbenzyl)-6-methyl-2-(piperazin-1-yl)-1H-imidazo[4,5-c]pyridin-4-yl)methyl)-2-methylpropan-1-amine], at Son of Sevenless (SOS), the inhibition constant Ki is > 5 µM. The EC50 in experiment [1] is 5 to 30 µM.

As to `Cc1cc2c(nc(N3CCNCC3)n2Cc2ccc(F)c(C)c2)c(CNC2CCCC2)n1` [Example 232, N-((1-(4-fluoro-3-methylbenzyl)-6-methyl-2-(piperazin-1-yl)-1H-imidazo[4,5-c]pyridin-4-yl)methyl)cyclopentanamine], on Son of Sevenless (SOS), the Ki was > 5 µM. In experiment [1], this compound registered an EC50 of 5 to 30 µM.

On to `Cc1cc2c(nc(N3CCNCC3)n2Cc2ccc(F)c(C)c2)c(CNC(C)C)n1` [Example 233, N-((1-(4-fluoro-3-methylbenzyl)-6-methyl-2-(piperazin-1-yl)-1H-imidazo[4,5-c]pyridin-4-yl)methyl)propan-2-amine], for which, on Son of Sevenless (SOS), the Ki is > 5 µM. The compound further returned an EC50 in experiment [1] of 5 to 30 µM.

On to `Cc1cc2c(nc(N3CCNCC3)n2Cc2ccc(F)c(C)c2)c(CNCCC(C)C)n1` [Example 234, N-((1-(4-fluoro-3-methylbenzyl)-6-methyl-2-(piperazin-1-yl)-1H-imidazo[4,5-c]pyridin-4-yl)methyl)-3-methylbutan-1-amine], for which, at Son of Sevenless (SOS), the inhibition constant Ki was > 5 µM. The EC50 in experiment [1] fell in the range of 5 to 30 µM.

Regarding `Cc1cc2c(nc(N3CCNCC3)n2Cc2ccc(F)c(C)c2)c(CN2CCCCC2)n1` [Example 235, 1-(4-fluoro-3-methylbenzyl)-6-methyl-2-(piperazin-1-yl)-4-(piperidin-1-ylmethyl)-1H-imidazo[4,5-c]pyridine], the Ki on Son of Sevenless (SOS) is > 5 µM. Besides, the half-maximal effective concentration (EC50) in experiment [1] lay in the range of 30 to 100 µM.

For the compound `Cc1cnc2nc(NCCN)n(Cc3ccc(F)c(C)c3)c2c1` [Example 245, N^1-(1-(4-fluoro-3-methylbenzyl)-6-methyl-1H-imidazo[4,5-b]pyridin-2-yl)ethane-1,2-diamine], at Son of Sevenless (SOS), the Ki is > 5 µM. Besides, in experiment [1], the half-maximal effective concentration (EC50) lay in the range of 1 to 5 µM.

For the compound `Cc1cnc2nc(NCCN)n(Cc3ccc(F)c(Cl)c3)c2c1` [Example 246, N^1-(1-(3-chloro-4-fluorobenzyl)-6-methyl-1H-imidazo[4,5-b]pyridin-2-yl)ethane-1,2-diamine], the Ki on Son of Sevenless (SOS) is 1 to 5 µM. The same compound returned an EC50 in experiment [1] of 1 to 5 µM.

Consider `Cc1cnc2nc(NC3CCNC3)n(Cc3ccc(F)c(Cl)c3)c2c1` (centres unmarked) [Example 247, 1-(3-chloro-4-fluorobenzyl)-6-methyl-N-(pyrrolidin-3-yl)-1H-imidazo[4,5-b]pyridin-2-amine], for which the Ki on Son of Sevenless (SOS) is 1 to 5 µM. The same compound gave an EC50 in experiment [1] of 1 to 5 µM.

`Clc1ccc(Cn2c(N3CCNCC3)nc3ncccc32)cc1` [Example 251, 1-(4-chlorobenzyl)-2-(piperazin-1-yl)-1H-imidazo[4,5-b]pyridine]: the Ki on Son of Sevenless (SOS) is > 5 µM. The same compound gave an EC50 in experiment [1] of 30 to 100 µM.

For `Cc1cc2c(nc(N3CCNCC3)n2Cc2ccc(F)c(Cl)c2)c(-c2cccnc2)c1C` [Example 265, 1-[(3-chloro-4-fluorophenyl)methyl]-5,6-dimethyl-2-piperazin-1-yl-4-pyridin-3-ylbenzimidazole], the inhibition constant Ki on Son of Sevenless (SOS) is 1 to 5 µM. In addition, in experiment [1], the EC50 lay within 1 to 5 µM.

Take `Fc1ccc(Cn2c(N3CCNCC3)nc3c(-c4cccnc4OCc4ccccc4)cccc32)cc1Cl` [Example 266, 1-[(3-chloro-4-fluorophenyl)methyl]-4-(2-phenylmethoxypyridin-3-yl)-2-piperazin-1-ylbenzimidazole]: the Ki at Son of Sevenless (SOS) is > 5 µM. The EC50 in experiment [1] lay within 5 to 30 µM.

As to `Cc1ccc2nc([C@@H]3CCC(=O)N3)n(Cc3ccc(F)c(Cl)c3)c2c1` [Example 274, (5S)-5-[1-[(3-chloro-4-fluorophenyl)methyl]-6-methylbenzimidazol-2-yl]pyrrolidin-2-one], the Ki on Son of Sevenless (SOS) was > 5 µM. Moreover, in experiment [1], the EC50 was in the range of 1 to 5 µM.

With `Cc1cc2nc(N3CCNCC3)n(Cc3cc(Cl)c(F)c(Cl)c3)c2cc1C` [Example 277, 1-[(3,5-dichloro-4-fluorophenyl)methyl]-5,6-dimethyl-2-piperazin-1-ylbenzimidazole], the Ki at Son of Sevenless (SOS) was > 5 µM. Further, the EC50 in experiment [1] is 1 to 5 µM.
